Measurements reported in patent publication US8187633B2, “Controlled release coated tablets having prolonged gastric retention” (Sun Pharma Advanced Research Company Limited, priority 2005, dated 2012).

Test: in vitro dissolution testing in simulated gastric fluids, Type 1 USP dissolution apparatus
Format: physicochemical
Details: coated trilayer tablet of the Example, 0.01 N hydrochloric acid, 100 rpm, 37° C.
Method: The coated tablets were subjected to in vitro dissolution testing in simulated gastric fluids (0.01 N hydrochloric acid) at 100 rpm and 37° C. using Type 1 USP dissolution apparatus. [table]

Row | SMILES | % released (0 hours) | % released (1 hour) | % released (2 hours) | % released (4 hours) | % released (6 hours) | % released (8 hours)
1 | N[C@@H](Cc1ccc(O)c(O)c1)C(=O)O [levodopa] | 0% | 24% | 33% | 57% | 82% | 95%
2 | C[C@@](Cc1ccc(O)c(O)c1)(NN)C(=O)O [Carbidopa] | 0% | 22% | 31% | 52% | 76% | 86%
